Assay results: BindingDB's records for doi:10.1016/j.bioorg.2016.01.007 (Universiti Teknologi Mara (Uitm), Puncak Alam Campus, 2016)

Target: T1, Beta-glucuronidase (Bos taurus, UniProt A3KMY8)
T1 sequence (A3KMY8 whole entry): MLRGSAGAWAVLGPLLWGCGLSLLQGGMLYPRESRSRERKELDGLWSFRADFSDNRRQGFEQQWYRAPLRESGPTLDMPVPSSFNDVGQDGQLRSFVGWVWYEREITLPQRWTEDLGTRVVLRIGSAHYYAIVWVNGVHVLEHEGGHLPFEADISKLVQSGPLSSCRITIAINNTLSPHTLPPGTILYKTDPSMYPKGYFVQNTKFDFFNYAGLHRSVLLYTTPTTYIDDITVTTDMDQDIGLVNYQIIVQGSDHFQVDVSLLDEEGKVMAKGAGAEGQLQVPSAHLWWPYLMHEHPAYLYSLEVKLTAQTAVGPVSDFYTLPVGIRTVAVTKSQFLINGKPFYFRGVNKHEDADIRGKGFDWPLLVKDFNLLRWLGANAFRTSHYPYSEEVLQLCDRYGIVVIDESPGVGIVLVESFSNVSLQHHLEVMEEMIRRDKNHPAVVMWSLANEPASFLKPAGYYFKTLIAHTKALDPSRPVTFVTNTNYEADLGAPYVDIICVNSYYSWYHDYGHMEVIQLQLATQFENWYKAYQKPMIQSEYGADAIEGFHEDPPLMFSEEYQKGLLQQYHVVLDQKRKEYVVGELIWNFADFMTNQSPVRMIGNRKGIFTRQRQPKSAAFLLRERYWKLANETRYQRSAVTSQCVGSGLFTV
Assay: β-Glucuronidase Inhibition Assay
Experimental: The total reaction volume was set at 250 µL. The reaction mixture comprises of 185 µL of 0.1 M acetate buffer, 5 µL of test compound solution, 10 µL of enzyme solution and incubated at 37 °C for 30 min. […] All assays were carried out in triplicate.

Compound | IC50 [µM]
COc1ccc(O)c(-c2nc3ncc(Cl)cc3[nH]2)c1 [2-(6-Chloro-1H-imidazo[4,5-b]pyridin-2-yl)-4-methoxyphenol (13)] | 129
Oc1ccc(-c2nc3ncc(Cl)cc3[nH]2)c(O)c1 [4-(6-Chloro-1H-imidazo[4,5-b]pyridin-2-yl)benzene-1,3-diol (2)] | 49.6

The remaining lines, values ahead:

IC50 [µM] | Compound
114 | COc1ccc(-c2nc3ncc(Cl)cc3[nH]2)c(O)c1 [2-(6-Chloro-1H-imidazo[4,5-b]pyridin-2-yl)-5-methoxyphenol (19)]
68.1 | Oc1cccc(-c2nc3ncc(Cl)cc3[nH]2)c1 [3-(6-Chloro-1H-imidazo[4,5-b]pyridin-2-yl)phenol (8)]
52.6 | Oc1ccc(-c2nc3ncc(Cl)cc3[nH]2)cc1 [4-(6-Chloro-1H-imidazo[4,5-b]pyridin-2-yl)phenol (26)]
